Experimental findings from ChEMBL document CHEMBL1158032, “Manaarenolides A-I, diterpenoids from the soft coral Sinularia manaarensis” (J Nat Prod, 2006) are described below.

≈ marks a conversion by molar mass, not a printed value.

The nature of data set [1]: Cytotoxicity against human Hepa59T/VGH cells by MTT assay. It is filed as functional. Particulars: HEPA 59T/VGH, read-out: ED50 (the source's name). In general terms: Tetrazolium dyes change colour on reduction, which living cells bring about.
In another data set the test system is HeLa. Kind of data set: Cytotoxicity against human HeLa cells by MTT assay. The data set is classed as functional. Particulars: read-out: ED50 (the source's name).
The nature of data set [2]: Cytotoxicity against human Med cells by MTT assay. It is filed as cell-based. To be noted: read-out: ED50 (the source's name).
In the next data set the test system is KB. As to the kind of experiment: Cytotoxicity against human KB cells by MTT assay. The data set is classed as functional. Particulars: read-out: ED50 (the source's name).

On to `C=C1C(=O)O[C@@H]2C[C@H]1C/C=C(\C)[C@@H](O)CC/C(C)=C/CC[C@]2(C)O` [MANAARENOLIDE G], for which the EC50 in data set [1] is 7.2 µg/mL (≈ 21.5 µM); in the data set with HeLa it was 10.9 µg/mL (≈ 32.6 µM); with KB, 8.7 µg/mL (≈ 26 µM). Besides, the CC50 in data set [2] is 13.4 µg/mL (≈ 40.1 µM).

For `C=C1C(=O)O[C@@H]2C[C@H]1C/C=C(/C)[C@@H](O)CC/C(C)=C/CC[C@]2(C)O` [MANAARENOLIDE H], the EC50 in data set [1] is 7.4 µg/mL (≈ 22.1 µM); in the data set on HeLa, 9.3 µg/mL (≈ 27.8 µM); in the data set with KB, 7.6 µg/mL (≈ 22.7 µM). Moreover, the CC50 in data set [2] turned out to be 5.8 µg/mL (≈ 17.3 µM).
